# Results from patent publication US12115163B2, “Combination therapy comprising a MAT2A inhibitor and a type II PRMT inhibitor” (IDEAYA BIOSCIENCES, INC., priority 2021, dated 2024).
# Entries after “also recorded” stand apart in the source; their conditions may differ.
# What was measured:
# Format in all cases: in vivo, mouse
# [1] = system: HCT-116 MTAP-deleted tumors; test: Efficacy of Compound A and Compound B in HCT-116 MTAP-deleted xenografts (Example 5); conditions: for TGI (%) / Final TV (mean): Day 21; for Final TV (mean): initial TV 224
# Method: (§1) The effect of Compound A and Compound B (HCl salt was used) as single-agent anti-tumor agents and in combination was assessed in the HCT-116 human colon tumor cell line, MTAP isogenic pair (MTAP proficient (WT) or MTAP-deleted). Cells were expanded in DMEM/F12 GlutaMAX (Fisher Scientific, Catalog Number 10-565-018) with 10% fetal bovine serum. These cells were free of mycoplasma and authenticated as HCT-116 by STR profiling. Two and a half million cells in log growth phase were resuspended in Hanks Balanced Salt Solution containing 50% Matrigel and implanted subcutaneously into the flank of each recipient female nu/nu mouse. Mice were housed in microisolator cages with corn cob bedding with additional enrichment consisting of sterile nesting material (Innovive) and Bio-huts (Bio-Serv). Water (Innovive) and diet (Teklad Global 19% Protein Extruded Diet 2919, Irradiated) were provided ad libitum. The environment was maintained on a 12-hour light cycle at approximately 68-72° F. and 40-60% relative humidity.
# (§2) Tumor Volume (TV) was calculated using the following formula: TV (mm^3)=(width×width×length)/2. No dose holidays were provided for during the study and all mice were euthanized following the final dose on Day 21 (MTAP-deleted) or Day 15 (MTAP WT). Tumor growth inhibition (TGI) was calculated by [(TV controlfinal−TV treatedfinal)/(TV controlfinal−TV controlinitial)×100]. A TGI greater than 100% indicates tumor regressions. TV was analyzed for statistical significance utilizing GraphPad Prism version 9.1.0. Repeated Measures 2-Way ANOVA with Tukey's Multiple Comparisons was utilized, and P-values were presented from the final tumor measurement and were considered statistically significant if less than 0.05.
# (§3) Mean tumor volume at dosing start was approximately 224 mm^3, with seven mice randomized to each treatment group. In the HCT-116 MTAP-deleted tumor model, mice were dosed orally, twice per day (BID) with Vehicle, once per day (QD) with Compound A at 1 or 3 mg/kg, or BID with Compound B at 3, 10, or 30 mg/kg, or Compound A combined with Compound B at each dose level. In the HCT-116 WT tumor model, mice were dosed orally, with BID Vehicle, QD with Compound A at 3 mg/kg, or BID with Compound B at 10 or 30 mg/kg, or Compound A combined with Compound B. The Vehicle was 0.5% 400 cps methylcellulose with 0.5% Tween-80 in sterile water.
# [2] = system: HCT-116 MTAP WT tumors; test: Efficacy of Compound A and Compound B in HCT-116 MTAP WT xenografts (Example 5); conditions: for TGI (%) / Final TV (mean): Day 15; for Final TV (mean): initial TV 228
# Method: as §1, §2, §3
# [3] = system: NCI-H838 MTAP-deleted xenografts; test: Efficacy of Compound A and Compound B in NCI-H838 NSCLC xenograft (Example 6); conditions: for TGI (%): Study Day 25; for Final TV (mean): initial TV 140
# Method: (§4) The effect of Compound A and Compound B (HCl salt was used) as single-agent anti-tumor agents and in combination was assessed in the NCI-H838 human NSCLC tumor cell line, an endogenously MTAP-deleted cell line. Cells were expanded in RPMI with 10% fetal bovine serum. These cells were free of mycoplasma and authenticated by STR profiling. Ten million cells in log growth phase were resuspended in RPMI-1640 containing 50% Matrigel and implanted subcutaneously into the flank of each recipient female BALB/c nude mouse. The mice were be kept in laminar flow rooms at constant temperature and humidity with 3-5 mice in each cage. Animals were housed in polycarbonate cages maintained at a temperature of 23±3° C. and a relative humidity of 40% to 70%. The bedding material was soft wood, which was changed once per week. Water and diet were provided ad libitum.
# as §2, with “the study.” for “the study and all mice were euthanized following the final dose on Day 21 (MTAP-deleted) or Day 15 (MTAP WT).”, “the Study Day 25” for “the final”
# Mean tumor volume at dosing start was approximately 140 mm^3, with ten mice randomized to each treatment group, with the study consisting of eight treatment groups. Mice were dosed orally, twice per day (BID) with Vehicle, once per day (QD) with Compound A at 3 mg/kg, or BID with Compound B at 1, 10, or 30 mg/kg, or Compound A combined with Compound B at each dose level. The Vehicle was 0.5% 400 cps methylcellulose with 0.5% Tween-80 in sterile water.
# [4] = system: LU99 MTAP-deleted xenografts; test: Efficacy of Compound A and Compound B in LU99 NSCLC xenograft (Example 7); conditions: for TGI (%) / Final TV (mean): Study Day 21
# Method: as §4, with “JCRB LU99” for “NCI-H838”
# as §2, with “study.” for “study and all mice were euthanized following the final dose on Day 21 (MTAP-deleted) or Day 15 (MTAP WT).”, “measurement on Study Day 21” for “measurement”
# Mean tumor volume at dosing start was approximately 141 mm^3, with ten mice randomized to each treatment group, with the study consisting of eight treatment groups. Mice were dosed orally, twice per day (BID) with Vehicle, once per day (QD) with Compound A at 3 mg/kg, or BID with Compound B at 1, 10, or 30 mg/kg, or Compound A combined with Compound B at each dose level. The Vehicle was 0.5% 400 cps methylcellulose with 0.5% Tween-80 in sterile water.
# [5] = HCT-116 MTAP WT model, over the dose levels tested
structure (smiles),measurement,setting,value
Nc1nc(=O)n(-c2ccccc2Cl)c2nc(C(F)(F)F)ccc12 [Compound A],TGI (%),[1]; Compound A 1 mg/kg QD orally,64%
same,Final TV (mean),[1]; Compound A 1 mg/kg QD orally,632 mm^3
same,TGI (%),[1]; Compound A 3 mg/kg QD orally,80%
same,Final TV (mean),[1]; Compound A 3 mg/kg QD orally,450 mm^3
same,anti-tumor activity (in words),"[1]; HCT-116 MTAP-deleted model, over the dose levels tested",statistically significant anti-tumor activity
same,TGI (%),[2]; Compound A 3 mg/kg QD orally,−9%
same,Final TV (mean),[2]; Compound A 3 mg/kg QD orally,1211 mm^3
same,anti-tumor activity (in words),[2]; [5],no tumor growth inhibition; also recorded: no single agent activity
same,TGI (%),[3]; Compound A 3 mg/kg QD orally,79%
same,Final TV (mean),[3]; Compound A 3 mg/kg QD orally,478 mm^3
same,anti-tumor activity (in words),"[3]; NCI-H838 model, over the dose levels tested",statistically significant anti-tumor activity
same,TGI (%),[4]; Compound A 3 mg/kg QD orally,43%
same,Final TV (mean),"[4]; Compound A 3 mg/kg QD orally, initial TV 142",1341 mm^3
same,anti-tumor activity (in words),"[4]; LU99 model, over the dose levels tested",statistically significant anti-tumor activity
"Cn1ncc(-c2ccc3c(=O)[nH]nc(CN)c3c2)c1-c1c(F)cc2ccccc2c1C#N (atropisomer, axis not shown) [Compound B]",TGI (%),[1]; Compound B 3 mg/kg BID orally,29%
same,Final TV (mean),[1]; Compound B 3 mg/kg BID orally,1015 mm^3
same,TGI (%),[1]; Compound B 10 mg/kg BID orally,49%
same,Final TV (mean),[1]; Compound B 10 mg/kg BID orally,794 mm^3
same,TGI (%),[1]; Compound B 30 mg/kg BID orally,83%
same,Final TV (mean),[1]; Compound B 30 mg/kg BID orally,420 mm^3
same,anti-tumor activity (in words),[2]; Compound B 10 mg/kg BID,significantly enhanced tumor growth
same,TGI (%),[2]; Compound B 10 mg/kg BID orally,−52%
same,Final TV (mean),[2]; Compound B 10 mg/kg BID orally,1596 mm^3
same,TGI (%),[2]; Compound B 30 mg/kg BID orally,−27%
same,Final TV (mean),[2]; Compound B 30 mg/kg BID orally,1372 mm^3
same,anti-tumor activity (in words),[2]; [5],no single agent activity
same,TGI (%),[3]; Compound B 1 mg/kg BID orally,53%
same,Final TV (mean),[3]; Compound B 1 mg/kg BID orally,899 mm^3
same,TGI (%),[3]; Compound B 10 mg/kg BID orally,56%
same,Final TV (mean),[3]; Compound B 10 mg/kg BID orally,839 mm^3
same,TGI (%),[3]; Compound B 30 mg/kg BID orally,67%
same,Final TV (mean),[3]; Compound B 30 mg/kg BID orally,666 mm^3
same,TGI (%),[4]; Compound B 1 mg/kg BID orally,23%
same,Final TV (mean),"[4]; Compound B 1 mg/kg BID orally, initial TV 142",1765 mm^3
same,TGI (%),[4]; Compound B 10 mg/kg BID orally,74%
same,Final TV (mean),"[4]; Compound B 10 mg/kg BID orally, initial TV 142",683 mm^3
same,TGI (%),[4]; Compound B 30 mg/kg BID orally,90%
same,Final TV (mean),"[4]; Compound B 30 mg/kg BID orally, initial TV 141",353 mm^3
